Measurements as given in patent US20240226100A1, “CONTROL OF PROTEIN EXPRESSION WITH TMP-PROTAC COMPOUNDS” (THE TRUSTEES OF THE UNIVERSITY OF PENNSYLVANIA, priority 2021, published 2024).
Where a name gives a salt, the structure may show the parent alone. Where a SMILES comes first, the peptide text is derived from it. The star is where a group is joined. Cbz = O=C(OCc1ccccc1)*

Columns and labels:
eDHFR-YFP [1] = assay: Time and dose-dependent degradation of YFP in Jurkat-DYL / Jurkat eDHFR-YFP+ cells, flow cytometry; type: cell-based, Escherichia coli; details: Jurkat-DYL; 4, 8 and 18 h incubation, varying doses
Procedure: Likewise, Jurkat eDHFR-YFP (Jurkat^eDHFR-YFP+) cells are seeded in clear (Falcon) 12-well plates (3×10^5 cells/well) in complete media. […]

[2] = system: DHFR-YFP (DY) direct fusion protein; assay: Degradation mechanism in Jurkat-DYL cells pre-treated with epoxomicin or hydroxychloroquine sulfate, flow cytometry; type: cell-based, Escherichia coli; details: Jurkat-DYL pre-treated with DMSO, epoxomicin or hydroxychloroquine sulfate 2 h, then compound 4 h
Procedure: In FIG. 2, flow cytometric analysis is used to measure Jurkat-DYL cells expressing DHFR-YFP (DY) direct fusion protein pre-treated with DMSO, epoxomicin (EPOX), or hydroxychloroquine sulfate (HCS) for 2 hours before DMSO or compound 7b treatment for 4 hours.

eDHFR-YFP [3] = assay: Inhibitor test in HEK293T eDHFR-YFP+ cells, Western blot; type: cell-based, Escherichia coli; details: inhibitor pre-incubated 1 h, then 100 nM 7c for 12 h
Procedure: Cells were then isolated as previously described and prepared for Western blot analysis. For readout by flow cytometry, 3×10^5 HEK293T^eDHFR-YFP+ cells were seeded in a clear (Falcon) 12-well plate (5×10^5 cells/well) in complete media and the cells were treated as described above the following day. Cells were washed, trypsinized, and collected following total of 13 h of incubation, and their YFP expression was analyzed on flow cytometer (BD).

[4] = system: FAP CAR-eDHFR direct fusion (DF); assay: Inhibitor test in primary human FAP-eDHFR DF CAR T cells, flow cytometry; type: cell-based; details: inhibitor pre-incubated 1 hour, then 100 nM 7c for 4 hours
Procedure: Following pre-incubation, either 100 nM 7c or vehicle control DMSO (Sigma) was added to the wells, and cells were incubated with the drug for another 4 hours. Following incubation, the cells were washed and their surface CAR expression was assessed on a flow cytometer (BD Biosciences).
Following pre-incubation, the cells were incubated with 100 nM 7c for 4 hours and their CAR expression was assessed on a flow cytometer.

FAP-eDHFR DF CAR T cells [5] = details: 10:1 E:T ratio overnight, I45 huFAP target cells
FAP-eDHFR DF CAR T cells [6] = details: 1 hour at 37° C., with or without 5 μM unlabeled TMP
Procedure: 3×10^6 CAR T cells were incubated with 6×10^6 counts per minute (cpm) of [^18F]FPTMP for 60 minutes in the presence or absence of unlabeled 5 μM TMP. Following incubation, cells were centrifuged at 1200 rpm and washed 3 times with cold PBS (Corning). After the third wash, the cell pellet was resuspended in 900 μL of PBS and split into 3 technical replicates of 300 μL. Radiotracer uptake was quantified on a gamma counter (PerkinElmer) and analyzed by dividing counts by the injected dose (ID) of [^18F]FPTMP. The final uptake was reported as a ratio between % ID normalized per 10^6 cells (% ID/10^6 cells) of the [^18F]FPTMP group and the blocked control (i.e. cells that were incubated with both unlabeled TMP and [^18F]FPTMP).

eDHFR-YFP [7] = assay: Degradation of eDHFR-YFP in HEK293T eDHFR-YFP+ cells, Western blot with anti-YFP antibody; type: cell-based, Escherichia coli; details: 24 h
Procedure: HEK293T eDHFR-YFP (HEK293T^eDHFR-YFP+) and OVCAR8 eDHFR-luc (OVCAR8^eDHFR-luc+) cells are prepared in clear (Falcon) 6-well plates (5×10^5 cells/well) and cultured in complete media. Compound 7c is solubilized in 100% DMSO to 10 mM. 10 mM 7c is serially diluted in sterile water accordingly and each dose administered to cells in fresh media at equal volume, such that the final concentration of DMSO in cell media is <1%. Once incubation with drug is completed, media is removed by vacuum, cells are washed with phosphate-buffered saline (PBS), trypsonized at 37° C., quenched with media, and centrifuged (Thermo Scientific Sorvall Legend X1R) at 1000 RPM for 5 minutes. Media and cell debris are removed by vacuum.
Once cells are isolated by centrifugation (Thermo Scientific Sorvall Legend X1R), they are solubilized in radioimmunoprecipitation assay (RIPA) lysis buffer with protease inhibitor. Cell lysate is incubated on ice for 30 minutes, sonicated, then centrifuged (Thermo Scientific Sorvall Legend Micro 21R) at 14,800 RPM for 10 minutes. Supernatant is removed and transferred to a new Eppendorf tube.
Using Thermo Scientific bicinchoninic acid (BCA) assay kit, total cell protein is quantified and compared to bovine serum albumin (BSA) standards ranging from 10 to 0.625 mg/mL. Cell lysate is aliquoted into a 96-well clear plate (Falcon) and mixed with reagent and shaken at 37° C. for 30 minutes. Samples are analyzed by plate reader (ThermoFisher Varioskan Plusplate), where absorbance is measured at […]. A calibration curve is developed, and samples are prepared to equal mass (mg) of total protein for gel electrophoresis.
Cell lysate is prepared by mixing with 4 uL of loading dye and PBS to give equal total protein and equal total volume across all samples. Each sample is loaded into a NuPage gel (4-12% Bis-tris) and developed in NuPage MES Running Buffer. Once complete, the gel is removed and prepared for protein transfer to membrane. […]

[8] = system: FAP CAR-eDHFR direct fusion (DF); assay: Dose response of surface CAR expression in primary human FAP-eDHFR DF CAR T cells, flow cytometry; type: cell-based; details: different doses, 24 hours
Procedure: Generated CAR T cells were pelleted, resuspended in 2% BSA in PBS (Invitrogen), and incubated with Alexa Fluor® 647 AffiniPure F(ab′2) fragment goat anti-mouse IgG (Jackson ImmunoResearch Laboratories) for 30 minutes at room temperature. Stained cells were washed 3 times with PBS, and were analyzed on a flow cytometer (LSR II, BD Biosciences) for CAR and/or BFP expression. All flow data were analyzed using FlowJo software (FlowJo).
Following incubation, the cells were washed and stained with Alexa Fluor® 647 AffiniPure F(ab′2) fragment goat anti-mouse IgG (Jackson ImmunoResearch Laboratories) as described under “Flow Cytometry”, and their surface expression was analyzed on a flow cytometer (LSR II, BD Biosciences).
Data plotted as raw CAR stain fluorescence is shown in the left panel and percent of maximum CAR expression is shown in the right panel.
Values are reported as percent of maximum CAR expression (i.e. relative to CAR T cells that were treated with vehicle control). Each color represents a different donor (n=3).

COc1cc(Cc2cnc(N)nc2N)cc(OC)c1OCCCC(=O)NCCOCCNc1cccc2c1C(=O)N(C1CCC(=O)NC1=O)C2=O (centres unmarked) [Compound 7b, 4-(4-((2,4-diaminopyrimidin-5-yl)methyl)-2,6-dimethoxyphenoxy)-N-(2-(2-((2-(2,6-dioxopiperidin-3-yl)-1,3-dioxoisoindolin-4-yl)amino)ethoxy)ethyl)butanamide]
degradation of YFP (eDHFR fusion protein) (eDHFR-YFP [1]): degrade eDHFR fusion proteins to low/no functional expression | mechanism of degradation of eDHFR-POI [2]: primarily via a proteosome-mediated mechanism of degradation

CCN(CCO)CCCC(C)Nc1ccnc2cc(Cl)ccc12 (centres unmarked) [Hydroxychloroquine HCl]
effect of inhibitor on eDHFR-YFP degradation induced by 7c (eDHFR-YFP [3]): does not

CO/C1=C\C(C)=C\[C@@H](C)[C@@H](O)[C@@H](C)C/C(C)=C/C=C/[C@H](OC)[C@@H]([C@@H](C)[C@@H](O)[C@H](C)[C@@]2(O)C[C@@H](O)[C@H](C)[C@@H](C(C)C)O2)OC1=O [bafilomycin]
effect of inhibitor on TMP-POM 7c-mediated degradation of CAR [4]: had no impact on TMP-POM 7c function

COc1cc(Cc2cnc(N)nc2N)cc(OC)c1OCCC[18F] [[18F]FPTMP, [^18F]Fluoropropyl-Trimethoprim]
effect of radiotracer exposure on CAR T cell cytotoxic function (FAP-eDHFR DF CAR T cells [5]): does not affect the effectors' ability to signal and kill target cells | in vitro uptake of radiolabeled TMP (FAP-eDHFR DF CAR T cells [6]): preserved in vitro uptake

NS(=O)(=O)OC[C@@H]1C[C@@H](n2ccc3c(N[C@H]4CCc5ccccc54)ncnc32)C[C@@H]1O [MLN4924]
effect of inhibitor on eDHFR-YFP degradation induced by 7c (eDHFR-YFP [3]): blocks degradation induced by 7c | effect of inhibitor on TMP-POM 7c-mediated degradation of CAR [4]: blocked TMP-POM 7c-mediated degradation of CAR

COc1cc(Cc2cnc(N)nc2N)cc(OC)c1OCCCC(=O)NCCOCCOCCOCCOCCOCCOCCNc1cccc2c1C(=O)N(C1CCC(=O)NC1=O)C2=O (centres unmarked) [Compound 7e, 4-(4-((2,4-diaminopyrimidin-5-yl)methyl)-2,6-dimethoxyphenoxy)-N-(20-((2-(2,6-dioxopiperidin-3-yl)-1,3-dioxoisoindolin-4-yl)amino)-3,6,9,12,15,18-hexaoxaicosyl)butanamide]
degradation of YFP (eDHFR fusion protein) (eDHFR-YFP [1]): degrade eDHFR fusion proteins to low/no functional expression | degradation of eDHFR-YFP in dose response screen (eDHFR-YFP [7]): no degradation

CC(C)C[C@@H](C=O)NC(=O)[C@H](CC(C)C)NC(=O)[C@H](CC(C)C)NC(=O)OCc1ccccc1 [MG132] (Cbz-Leu-Leu-Leu-aldehyde)
effect of inhibitor on TMP-POM 7c-mediated degradation of CAR [4]: blocked TMP-POM 7c-mediated degradation of CAR

COc1cc(Cc2cnc(N)nc2N)cc(OC)c1OCC(=O)NCCOCCOCCNc1cccc2c1C(=O)N(C1CCC(=O)NC1=O)C2=O (centres unmarked) [Compound 7a, 2-(4-((2,4-diaminopyrimidin-5-yl)methyl)-2,6-dimethoxyphenoxy)-N-(2-(2-(2-((2-(2,6-dioxopiperidin-3-yl)-1,3-dioxoisoindolin-4-yl)amino)ethoxy)ethoxy)ethyl)acetamide]
degradation of YFP (eDHFR fusion protein) (eDHFR-YFP [1]): degrade eDHFR fusion proteins to low/no functional expression

CC[C@H](C)[C@H](NC(=O)[C@H]([C@@H](C)CC)N(C)C(C)=O)C(=O)N[C@H](C(=O)N[C@@H](CC(C)C)C(=O)[C@@]1(C)CO1)[C@@H](C)O [Epoxomicin]
effect of inhibitor on eDHFR-YFP degradation induced by 7c (eDHFR-YFP [3]): blocks degradation induced by 7c | effect of inhibitor on TMP-POM 7c-mediated degradation of CAR [4]: blocked TMP-POM 7c-mediated degradation of CAR

Cn1cnc(N)c2ncnc1-2 [3-Methyladenine]
effect of inhibitor on eDHFR-YFP degradation induced by 7c (eDHFR-YFP [3]): does not

COc1cc(Cc2cnc(N)nc2N)cc(OC)c1OCCCC(=O)NCCOCCOCCNc1cccc2c1C(=O)N(C1CCC(=O)N(C)C1=O)C2=O (centres unmarked) [Compound 7f, 4-(4-((2,4-diaminopyrimidin-5-yl)methyl)-2,6-dimethoxyphenoxy)-N-(2-(2-(2-((2-(1-methyl-2,6-dioxopiperidin-3-yl)-1,3-dioxoisoindolin-4-yl)amino)ethoxy)ethoxy)ethyl)butanamide]
downregulation of surface CAR expression in dose response assay [8]: does not result in downregulation of CAR expression from their surface | eDHFR-YFP degradation at 100 nM (eDHFR-YFP [7]; 100 nM): does not induce eDHFR-YFP degradation
